Where “and” joins values, the source holds several entries; their conditions need not be identical. Equal entries are not always repeated. Where a SMILES comes first, the peptide text is derived from it. [ ]: non-standard residue; d: D form. Hyp = O=C(O)[C@@H]1C[C@@H](O)CN1
Tests used:
VEGF-A = assay: Example 9 Luminex, LPS hPBMCs: VEGF-A; format: cell-based, human; details: no LPS
Protocol: (§1) Treatment Human PBMCs were pretreated with YY-101, YDE-011 and YDE-043 or reference compound; Xiidra® at various concentration (ranging from 1 nM to 100 uM) for 2 h before stimulation. An equal volume of 0.5% DMSO was used as a vehicle control. Then, the cells were treated with LPS at 5 ug/ml. The supernatants from treated cells were harvested at 24 h and placed in a 96 well for Luminex cytokine & chemokine profiling using a Luminex 200 multiplex assay (Luminex; R&D system, USA).
(§2) The main study arm with triplicate wells per group in a 24-well plate: • 1. Blank • 2. PBMC: 0.5% DMSO • 3. PBMC+LPS (5 ug/ml) • 4. PBMC+YY-101 100 uM • 5. PBMC+YY-101 10 uM • 6. PBMC+YY-101 1 uM • 7. PBMC+YY-101 0.1 uM • 8. PBMC+YY-101 0.01 uM • 9. PBMC+LPS (5 ug/ml)+Xiidra®100 uM • 10. PBMC+LPS (5 ug/ml)+Xiidra® 10 uM • 11. PBMC+LPS (5 ug/ml)+Xiidra® 1 uM • 12. PBMC+LPS (5 ug/ml)+Xiidra®0.1 uM • 13. PBMC+LPS (5 ug/ml)+Xiidra®0.01 uM • 14. PBMC+LPS (5 ug/ml)+Xiidra®0.001 uM • 15. PBMC+LPS (5 ug/ml)+YY-101 100 uM • 16. PBMC+LPS (5 ug/ml)+YY-101 10 uM • 17. PBMC+LPS (5 ug/ml)+YY-101 1 uM • 18. PBMC+LPS (5 ug/ml)+YY-101 0.1 uM • 19. PBMC+LPS (5 ug/ml)+YY-101 0.01 uM • 20. PBMC+LPS (5 ug/ml)+YY-101 0.001 uM • 21. PBMC+LPS (5 ug/ml)+YDE-011 100 uM • 22. PBMC+LPS (5 ug/ml)+YDE-011 10 uM • 23. PBMC+LPS (5 ug/ml)+YDE-011 1 uM • 24. PBMC+LPS (5 ug/ml)+YDE-011 0.1 uM • 25. PBMC+LPS (5 ug/ml)+YDE-011 0.01 uM • 26. PBMC+LPS (5 ug/ml)+YDE-011 0.001 uM • 27. PBMC+LPS (5 ug/ml)+YDE-043 100 uM • 28. PBMC+LPS (5 ug/ml)+YDE-043 10 uM • 29. PBMC+LPS (5 ug/ml)+YDE-043 1 uM • 30. PBMC+LPS (5 ug/ml)+YDE-043 0.1 uM • 31. PBMC+LPS (5 ug/ml)+YDE-043 0.01 uM • 32. PBMC+LPS (5 ug/ml)+YDE-043 0.001 uM
(§3) Multiplex assay was used to measure 30 cytokines and chemokines. The 1:2, 1:10 and 1:200 diluted cell supernatant and serial dilution of the standard were dispensed into a 96 well plate at 50 ul/well. Then, the pre-mixed cocktail of antibody-coated magnetic beads was dispensed at 50 ul/well and incubated at room temperature for 2 h in a horizontal orbital microplate shaker at 800±500 rpm. The beads were washed using a magnetic device to prevent loss. The biotin-antibody was dispensed in 50 ul of each well and incubated at room temperature for 1 h in a shaker at 800±500 rpm. After washing, streptavidin-PE was added at 50 ul/well and incubated at room temperature for 30 min in a shaker under the same conditions. Finally, after washing, wash buffer (100 ul/well) was added to the plate and incubated in a shaker for 2 min. The Luminex™ 200 setting were set according to the manufacturer's protocol. The data was calculated with a standard five-parameter logistic nonlinear regression analysis of the data (xPonent software 4.2, USA). The levels of cytokine/chemokine are normalized to the live cell counts (1×10^5 cells/mL) and presented as concentrations per mL (pg/mL or ng/mL).

GM-CSF = assay: Example 9 Luminex, LPS hPBMCs: GM-CSF; format: cell-based, human
Protocol: as §1, §2, §3

[1] = PBMC + test article 10 uM, Mean
[2] = PBMC + test article 10 uM, single replicates
[3] = PBMC + test article 100 uM, Mean
[4] = PBMC + test article 100 uM, single replicates
[5] = PBMC + LPS(5 ug/ml) + test article 0.001 uM, Mean
[6] = PBMC + LPS(5 ug/ml) + test article 0.001 uM, single replicates
[7] = PBMC + LPS(5 ug/ml) + test article 0.01 uM, Mean
[8] = PBMC + LPS(5 ug/ml) + test article 0.01 uM, single replicates
[9] = PBMC + LPS(5 ug/ml) + test article 0.1 uM, Mean
[10] = PBMC + LPS(5 ug/ml) + test article 0.1 uM, single replicates
[11] = PBMC + LPS(5 ug/ml) + test article 1 uM, Mean
[12] = PBMC + LPS(5 ug/ml) + test article 1 uM, single replicates
[13] = PBMC + LPS(5 ug/ml) + test article 10 uM, Mean
[14] = PBMC + LPS(5 ug/ml) + test article 10 uM, single replicates
[15] = PBMC + LPS(5 ug/ml) + test article 100 uM, Mean
[16] = PBMC + LPS(5 ug/ml) + test article 100 uM, single replicates
[17] = PBMC + test article 0.01 uM, no LPS, Mean
[18] = PBMC + test article 0.01 uM, no LPS, single replicates
[19] = PBMC + test article 0.1 uM, no LPS, Mean
[20] = PBMC + test article 0.1 uM, no LPS, single replicates
[21] = PBMC + test article 1 uM, no LPS, Mean
[22] = PBMC + test article 1 uM, no LPS, single replicates
[23] = PBMC + test article 10 uM, no LPS, Mean
[24] = PBMC + test article 10 uM, no LPS, single replicates
[25] = PBMC + test article 100 uM, no LPS, Mean
[26] = PBMC + test article 100 uM, no LPS, single replicates

For `CC(C)C[C@H](NC(=O)CNC(=O)[C@H](CC(=O)O)NC(=O)[C@H](CCC(N)=O)NC(=O)CNC(=O)[C@@H]1C[C@@H](O)CN1)C(=O)N[C@@H](C)C(=O)NCC(=O)N1CCC[C@H]1C(=O)N[C@@H](CCCCN)C(=O)O` [YY-101] (H-[Hyp]GQDGLAGPK-OH; N-terminus and C-terminus assumed), the “MFI, Bead name: VEGF-A” value (VEGF-A; [1]) was 1.0, the “conc/live cell, Bead name: VEGF-A” value (VEGF-A; [1]) was 1.3 pg/10^5 and the “Concentration, Bead name: VEGF-A” value (VEGF-A; [2]) was 7.3 pg/mL and 8.5 pg/mL. The “MFI, Bead name: VEGF-A” value (VEGF-A; [2]) was 0.8 and 1.3, the “conc/live cell, Bead name: VEGF-A” value (VEGF-A; [2]) was 1.1 pg/10^5 and 1.4 pg/10^5 and the “Concentration, Bead name: VEGF-A” value (VEGF-A; [3]) was 3.6 pg/mL. For the same compound, the “MFI, Bead name: VEGF-A” value (VEGF-A; [3]) was −0.8, the “conc/live cell, Bead name: VEGF-A” value (VEGF-A; [3]) was 0.5 pg/10^5 and the “Concentration, Bead name: VEGF-A” value (VEGF-A; [4]) was 3.6 pg/mL. The “MFI, Bead name: VEGF-A” value (VEGF-A; [4]) was −0.8, the “conc/live cell, Bead name: VEGF-A” value (VEGF-A; [4]) was 0.6 pg/10^5 and 0.5 pg/10^5 and the “GM-CSF Concentration” value (GM-CSF; [5]) was 159.8 pg/mL. The GM-CSF conc/live cell (GM-CSF; [5]) was 24.7 pg/10^5, the “GM-CSF Concentration” value (GM-CSF; [6]) was 138.9 pg/mL and 160.4 pg/mL and 180.1 pg/mL and the GM-CSF conc/live cell (GM-CSF; [6]) was 24.4 pg/10^5 and 22.6 pg/10^5 and 27.3 pg/10^5. The “GM-CSF Concentration” value (GM-CSF; [7]) was 159.0 pg/mL, the GM-CSF conc/live cell (GM-CSF; [7]) was 25.8 pg/10^5 and the “GM-CSF Concentration” value (GM-CSF; [8]) was 164.4 pg/mL and 159.6 pg/mL and 153.1 pg/mL. For the same compound, the GM-CSF conc/live cell (GM-CSF; [8]) was 25.7 pg/10^5 and 26.6 pg/10^5 and 25.1 pg/10^5, the “GM-CSF Concentration” value (GM-CSF; [9]) was 139.7 pg/mL and the GM-CSF conc/live cell (GM-CSF; [9]) was 23.9 pg/10^5. The “GM-CSF Concentration” value (GM-CSF; [10]) was 150.7 pg/mL and 135.6 pg/mL and 132.7 pg/mL, the GM-CSF conc/live cell (GM-CSF; [10]) was 24.3 pg/10^5 and 26.1 pg/10^5 and 21.4 pg/10^5 and the “GM-CSF Concentration” value (GM-CSF; [11]) was 141.2 pg/mL. The GM-CSF conc/live cell (GM-CSF; [11]) was 21.7 pg/10^5, the “GM-CSF Concentration” value (GM-CSF; [12]) was 137.2 pg/mL and 133.1 pg/mL and 153.1 pg/mL and the GM-CSF conc/live cell (GM-CSF; [12]) was 21.8 pg/10^5 and 18.8 pg/10^5 and 24.7 pg/10^5. For the same compound, the “GM-CSF Concentration” value (GM-CSF; [13]) was 148.1 pg/mL, the GM-CSF conc/live cell (GM-CSF; [13]) was 22.5 pg/10^5 and the “GM-CSF Concentration” value (GM-CSF; [14]) was 153.1 pg/mL and 143.8 pg/mL and 147.4 pg/mL. The GM-CSF conc/live cell (GM-CSF; [14]) was 25.5 pg/10^5 and 22.5 pg/10^5 and 19.4 pg/10^5, the “GM-CSF Concentration” value (GM-CSF; [15]) was 224.0 pg/mL and the GM-CSF conc/live cell (GM-CSF; [15]) was 38.7 pg/10^5. The “GM-CSF Concentration” value (GM-CSF; [16]) was 239.6 pg/ml and 216.3 pg/ml (2×), the GM-CSF conc/live cell (GM-CSF; [16]) was 38.0 pg/10^5 and 34.9 pg/10^5 and 43.3 pg/10^5 and the “GM-CSF Concentration” value (GM-CSF; [17]) was 5.8 pg/mL. The GM-CSF conc/live cell (GM-CSF; [17]) was 1.2 pg/10^5, the “GM-CSF Concentration” value (GM-CSF; [18]) was 5.3 pg/mL and 6.3 pg/mL and the GM-CSF conc/live cell (GM-CSF; [18]) was 1.0 pg/10^5 and 1.3 pg/10^5. For the same compound, the “GM-CSF Concentration” value (GM-CSF; [19]) was 4.4 pg/mL, the GM-CSF conc/live cell (GM-CSF; [19]) was 0.8 pg/10^5 and the “GM-CSF Concentration” value (GM-CSF; [20]) was 1.9 pg/mL and 6.9 pg/mL. For the same compound, the GM-CSF conc/live cell (GM-CSF; [20]) was 0.4 pg/10^5 and 1.2 pg/10^5, the “GM-CSF Concentration” value (GM-CSF; [21]) was 4.4 pg/mL and the GM-CSF conc/live cell (GM-CSF; [21]) was 0.8 pg/10^5. The “GM-CSF Concentration” value (GM-CSF; [22]) was 4.7 pg/mL and 4.2 pg/mL, the GM-CSF conc/live cell (GM-CSF; [22]) was 0.9 pg/10^5 and 0.8 pg/10^5 and the “GM-CSF Concentration” value (GM-CSF; [23]) was 23.5 pg/mL. For the same compound, the GM-CSF conc/live cell (GM-CSF; [23]) was 3.7 pg/10^5, the “GM-CSF Concentration” value (GM-CSF; [24]) was 33.5 pg/mL and 13.5 pg/mL and the GM-CSF conc/live cell (GM-CSF; [24]) was 5.2 pg/10^5 and 2.2 pg/10^5. The “GM-CSF Concentration” value (GM-CSF; [25]) was 11.0 pg/mL, the GM-CSF conc/live cell (GM-CSF; [25]) was 1.7 pg/10^5 and the “GM-CSF Concentration” value (GM-CSF; [26]) was 14.5 pg/mL and 7.4 pg/mL. The GM-CSF conc/live cell (GM-CSF; [26]) was 2.3 pg/10^5 and 1.1 pg/10^5 and the “LPS-induced GM-CSF levels (in words)” value (GM-CSF; at 100.iM, LPS 5 ug/mL 24 hrs) was “further increased”.

Source: patent US20230146455A1, “TREATMENT OF INFLAMMATORY DISEASES WITH PEPTIDES AND PHARMACEUTICAL COMPOSITIONS” (Yuyu Pharma, Inc., priority 2020, published 2023)
